Values quoted from earlier work in US20030194514A1 (priority 2002, published 2003).

What was measured:
[1] = diluent level of 15%; cited from earlier work
[2] = per Brit. 1,132,417; cited from earlier work
[3] = especially at a dilution level of 20-30%; cited from earlier work

In the case of `c1ccccc1` [benzene], the “Judgement as stabilizer for propargyl bromide by impact tests” value (shortened to “Judgement as stabilizer … by impact tests”) [1] is given as “poor stabilizers”.

In the case of `ClC(Cl)Cl` [chloroform], the “Effectiveness of the solvent in stabilizing propargyl bromide” value (“Effectiveness of the solvent” below) [2] is given as “ineffective” and the “Judgement as stabilizer … by impact tests” value [1] is given as “poor stabilizers”.

For `CCOCC` [diethyl ether], the “Judgement as stabilizer … by impact tests” value [1] is given as “appeared promising”.

For `CC(C)OC(C)C` [diisopropyl ether], the “Judgement as stabilizer … by impact tests” value [1] is listed as “appeared promising”.

In the case of `C1COCCO1` [dioxane], the “Effectiveness of the solvent” value [2] is given as “effective”.

For `CCO` [ethanol], the “Effectiveness of the solvent” value [2] is listed as “effective”.

For `NC=O` [formamide], the “Effectiveness of the solvent” value [2] is listed as “ineffective” and the “Judgement as stabilizer … by impact tests” value [1] is listed as “poor stabilizers”.

For `CCCCCC` [hexane], the “Effectiveness of the solvent” value [2] is given as “ineffective” and the “Judgement as stabilizer … by impact tests” value [1] is given as “poor stabilizers”.

For `C1CCOC1` [tetrahydrofuran], the “Effectiveness of the solvent” value [2] is listed as “effective”.

In the case of `Cc1ccccc1` [toluene], the “Judgement as stabilizer in confinement tests” value [3] is given as “material of choice”.

For xylene, the “Effectiveness of the solvent” value [2] is listed as “effective”.
